Patent US6872805B2 (Bristol-Myers Squibb Company, priority 2000, dated 2005)

Experiments:
[1] = target: HCV NS3/4A protease complex (Hepatitis C virus genotype 1a, UniProt P27958, C1454S/C1711G); assay: Recombinant HCV NS3/4A protease complex FRET peptide assay (strain not stated); type: biochemical; details: IC50, NS3/4A protease enzyme assay, strain not stated; activity ranges
Text: The purpose of this in vitro assay was to measure the inhibition of HCV NS3 protease complexes, derived from the BMS, H77C or J416S strains, as described below, by compounds of the present invention.
Serum from an HCV-infected patient was obtained from Dr. T. Wright, San Francisco Hospital. An engineered full-length cDNA template of the HCV genome (BMS strain) was constructed from DNA fragments obtained by reverse transcription-PCR (RT-PCR) of serum RNA and using primers selected on the basis of homology between other genotype 1a strains. […] The infectious clones, H77C (1a genotype) and J4L6S (1b genotype) were obtained from R. Purcell (NIH) and the sequences are published in genebank (AAB67036, see Yanagi, M., Purcell, R. H., Emerson, S. U. and Bukh, J. Proc. Natl. Acad. Sci. U.S.A. 94(16),8738-8743 (1997); AF054247, see Yanagi, M., St Claire, M., Shapiro, M., Emerson, S. U., Purcell, R. H. and Bukh, J, Virology 244 (1), 161-172. (1998)).
The BMS, H77C and J4L6S strains were used for production of recombinant NS3/4A protease complexes. DNA encoding the recombinant HCV NS3/4A protease complex (amino acid 1027 to 1711) for these strains were manipulated as described by P. Gallinari et al. (see Gallinari P, Paolini C, Brennan D, Nardi C, Steinkuhler C, De Francesco R. Biochemistry. 38(17):5620-32, (1999)). Briefly, a three-lysine solubilizing tail was added at the 3′-end of the NS4A coding region. The cysteine in the P1 position of the NS4A-NS4B cleavage site (amino acid 1711) was changed to a glycine to avoid the proteolytic cleavage of the lysine tag. Furthermore, a cysteine to serine mutation was introduced by PCR at amino acid position 1454 to prevent the autolytic cleavage in the NS3 helicase domain. The variant DNA fragment was cloned in the pET21b bacterial expression vector and the NS3/4A complex was expressed in E. coli BL21 (DE3) following the protocol described by P. Gallinari et al. (see Gallinari P, Brennan D, Nardi C, Brunetti M, Tomei L, Steinkuhler C, De Francesco R., J Virol. 72(8):6758-69 (1998)) with modifications. Briefly, NS3/4A expression was induced with 0.5 mM IPTG for 22 hr at 20° C. […] The cells were resuspended in lysis buffer (10 mL/g) consisting of 25 mM HEPES, pH 7.5, 20% glycerol, 500 mM NaCl, 0.5% Triton-X100, 1 ug/ml lysozyme, 5 mM MgCl2, 1 ug/ml DNaseI 5 mM β-Mercaptoethanol (βME), Protease inhibitor—EDTA free, homogenized and incubated for 20 mins at 4° C. The homogenate was sonicated and clarified by ultra-centrifugation at 235000 g for 1 hr at 4° C. Imidazole was added to the supernatant to a final concentration of 15 mM and the pH adjusted to 8.0. The crude protein extract was loaded on a Ni-NTA column pre-equilibrated with buffer B (25 mM HEPES, pH 8.0, 20% glycerol, 500 mM NaCl, 0.5% Triton-X100, 15 mM imidazole, 5 mM βME). The sample was loaded at a flow rate of 1 mL/min. The column was washed with 15 column volumes of buffer C (same as buffer B except with 0.2% Triton-X100). The protein was eluted with 5 column volumes of 200 mM Imidazole in buffer.
NS3/4A protease complex-containing fractions were pooled and loaded on a desalting column Superdex-S200 pre-equilibrated with buffer D (25 mM HEPES, pH 7.5, 20% glycerol, 300 mM NaCl, 0.2% Triton-X100, 10 mM βME). Sample was loaded at a flow rate of 1 mL/min. NS3/4A protease complex-containing fractions were pooled and concentrated to approximately 0.5 mg/ml.

[2] = tested on: HCV replicon in Huh7 cells; assay: HCV replicon cell-based assay; parameters: species or system HCV strain 1B; details: Hepatitis C virus, Huh-7, 96 h; HCV replicon, Huh7 cells, 4 days; activity ranges; read-out: EC50
Text: An HCV replicon whole cell system was established as described by Lohmann V, Korner F, Koch J, Herian U, Theilmann L, Bartenschlager R., Science 285(5424):110-3 (1999). This system enabled us to evaluate the effects of our HCV Protease compounds on HCV RNA replication. Briefly, using the HCV strain 1B sequence described in the Lohmann paper (Assession number:AJ238799), an HCV cDNA was generated encoding the 5′ internal ribosome entry site (IRES), the neo gene, the EMCV-IRES and the HCV nonstructural proteins, NS3-NS5B, and 3′ NTR. […] Resulting cell lines were characterized for positive and negative RNA production and protein production over time.
Huh7 cells, constitutively expressing the HCV replicon, were grown in DMEM containing 10% FCS (Fetal calf serum) and 1 mg/ml G418 (Gibco-BRL). Cells were seeded the night before (1.5×10^4 cells/well) in 96-well tissue-culture sterile plates. Compound was prepared in DMEM containing 4% FCS, 1:100 Penicillin/Streptomysin, 1:100 L-glutamine and 0.5% DMSO. Compound/DMSO mixes were added to the cells and incubated for 4 days at 37° C. After 4 days, cells were either lyzed using the Rneasy kit (Qiagen) to isolate and purify RNA for an EC50 determination or assessed for cytotoxicity using alamar Blue (Trek Diagnotstic Systems) for a CC50 reading. For an EC50 determination, purified total RNA was normalized using RiboGreen (Jones L J, Yue S T, Cheung C Y, Singer V L, Anal. Chem., 265(2):368-74 (1998)) and relative quantitation of HCV RNA expression assessed using the Taqmann procedure (Kolykhalov A A, Mihalik K, Feinstone S M, Rice C M, Journal of Virology 74, 2046-2051 (2000)). Briefly, RNA made to a volume of 5 μl (≦1 ng) was added to a 20 μl Ready-Mix containing the following: 5×EZ rTth buffer, 3 mM MnOAc2, 3 mM dNTPs, 200 nM forward primer, 600 nM reverse primer, 100 nM probe and rTth polymerase. Samples containing known concentrations of HCV RNA transcript were run as standards. Using the following cycling protocol (95° C., 1 min; 60° C., 0.5 min; 95° C., 2 min; 40 cycles of 94° C., 0.5 min, 60° C.; 1 min; and completing with 60° C., 10 min), HCV RNA expression was quantitated as described in the Perkin Elmer manual. The toxicity of compound (CC50) was determined by adding 1/10th volume of alamar Blue to the media incubating the cells. After 4 hr, the fluorescence signal from each well was read, with an excitation wavelength at 530 nm and an emission wavelength of 580 nm, using the Cytofluor Series 4000 (Perspective Biosystems).

Sequence of HCV NS3/4A protease complex (P27958 1027-1711, stated change not applied): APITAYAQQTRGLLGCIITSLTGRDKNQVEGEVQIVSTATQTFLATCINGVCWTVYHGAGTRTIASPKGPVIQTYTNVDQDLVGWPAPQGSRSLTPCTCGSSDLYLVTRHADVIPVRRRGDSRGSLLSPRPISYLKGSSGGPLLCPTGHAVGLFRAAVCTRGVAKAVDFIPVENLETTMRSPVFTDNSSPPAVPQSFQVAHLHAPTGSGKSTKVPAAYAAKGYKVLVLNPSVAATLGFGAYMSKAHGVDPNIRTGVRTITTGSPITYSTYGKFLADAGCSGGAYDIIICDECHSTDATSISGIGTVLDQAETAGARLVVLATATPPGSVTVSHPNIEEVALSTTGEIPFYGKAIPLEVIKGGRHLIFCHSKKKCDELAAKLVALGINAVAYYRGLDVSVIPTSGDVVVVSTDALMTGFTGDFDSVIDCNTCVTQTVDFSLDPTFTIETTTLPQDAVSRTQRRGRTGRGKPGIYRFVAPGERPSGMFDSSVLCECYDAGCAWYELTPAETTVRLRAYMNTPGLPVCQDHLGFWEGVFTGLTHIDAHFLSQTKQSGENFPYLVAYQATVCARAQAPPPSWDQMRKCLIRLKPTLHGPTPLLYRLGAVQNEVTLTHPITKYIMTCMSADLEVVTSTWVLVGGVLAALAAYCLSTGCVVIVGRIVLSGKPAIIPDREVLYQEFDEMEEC
Sequence of HCV NS3/4A protease complex (P27958 1027-1711, stated change not applied): as above

Row | SMILES | IC50 [1] | EC50 [2]
1 | C=CC1C[C@]1(NC(=O)[C@@H]1C[C@@H](Oc2cc(-c3ccccc3)nc3cc(OC)ccc23)CN1C(=O)[C@H](CC(C)C)NC(=O)OC(C)(C)C)C(=O)NS(=O)(=O)C1CC1 (some centres unmarked) [Compound 33] | < 50 nM | < 50 nM
2 | CCC1C[C@]1(NC(=O)[C@@H]1C[C@@H](Oc2cc(-c3ccccc3)nc3cc(OC)ccc23)CN1C(=O)[C@@H](NC(=O)OC(C)(C)C)C(C)C)C(=O)NS(=O)(=O)C1CC1 (stereo in doubt) [Compound 3, {1-[2-(1-cyclopropanesulfonylaminocarbonyl-2-ethylcyclopropylcarbamoyl)-4-(7-methoxy-2-phenylquinolin-4-yloxy)pyrrolidine-1-carbonyl]-2-methylpropyl}carbamic acid tert-butyl ester] | < 50 nM | < 50 nM
3 | C=CC1C[C@]1(NC(=O)[C@@H]1C[C@@H](Oc2cc(-c3ccccc3)nc3cc(OC)ccc23)CN1C(=O)[C@@H](NC(=O)OC(C)(C)C)C(C)(C)C)C(=O)NS(=O)(=O)CC(C)(C)C (stereo in doubt) [Compound 14, {1-[2-[1-(2,2-Dimethylpropane-1-sulfonylaminocarbonyl)-2-vinylcyclopropylcarbamoyl]-4-(7-methoxy-2-phenylquinolin-4-yloxy)pyrrolidine-1-carbonyl]-2,2-dimethylpropyl}-carbamic acid tert-butyl ester] | < 500 nM | < 500 nM
4 | C=CC1C[C@]1(NC(=O)[C@@H]1C[C@@H](Oc2cc(-c3ccccc3)nc3cc(OC)ccc23)CN1C(=O)[C@@H](NC(=O)OC(C)(C)C)C(C)(C)C)C(=O)NS(=O)(=O)C1CC1 (stereo in doubt) [Compound 10, {1-[2-(1-Cyclopropanesulfonylaminocarbonyl-2-vinylcyclopropylcarbamoyl)-4-(7-methoxy-2-phenylquinolin-4-yloxy)-pyrrolidine-1-carbonyl]-2,2-dimethylpropyl}carbamic acid tert-butyl ester] | < 50 nM | < 50 nM
5 | C=CC1C[C@]1(NC(=O)[C@@H]1C[C@@H](Oc2cc(-c3ccccc3)nc3cc(OC)ccc23)CN1C(=O)[C@@H](NC(=O)OC(C)(C)C)C(C)(C)C)C(=O)NS(=O)(=O)CC1CCC1 (stereo in doubt) [Compound 15, {1-[2-(1-Cyclobutylmethanesulfonylaminocarbonyl-2-vinylcyclopropylcarbamoyl)-4-(7-methoxy-2-phenylquinolin-4-yloxy)pyrrolidine-1-carbonyl]-2,2-dimethylpropyl}-carbamic acid tert-butyl ester] | < 500 nM | < 5000 nM
6 | C=C[C@@H]1C[C@]1(NC(=O)C1CC(Oc2cc(-c3ccccc3)nc3cc(OC)ccc23)CN1C(=O)[C@@H](NC(=O)OC)C(C)(C)C)C(=O)NS(=O)(=O)C1CC1 (stereo partly drawn) [Compound 113, {1S-[2S-(1R-cyclopropanesulfonylaminocarbonyl-2S-vinyl-cyclopropylcarbamoyl)-4R-(7-methoxy-2-phenyl-quinolin-4-yloxy)-pyrrolidine-1-carbonyl]-2,2-dimethyl-propyl}carbamic acid methyl ester] | < 50 nM | < 50 nM
7 | C=C[C@@H]1C[C@]1(NC(=O)C1C[C@@H](Oc2cc(-c3ccccc3)nc3cc(OC)ccc23)CN1C(=O)[C@@H](NC(=O)COC)C(C)(C)C)C(=O)NS(=O)(=O)C1CC1 (stereo partly drawn) [Compound 107, 1-[2S-(2-methoxy-acetylamino)-3,3-dimethyl-butyryl]-4R-(7-methoxy-2-phenyl-quinolin-4-yloxy)-pyrrolidine-2S-carboxylic acid (1R-cyclopropanesulfonylamino-carbonyl-2S-vinyl-cyclopropyl)-amide] | < 50 nM | < 500 nM
8 | C=CCC[C@](C)(NC(=O)[C@@H]1C[C@@H](Oc2cc(-c3ccccc3)nc3cc(OC)ccc23)CN1C(=O)C(NC(=O)OC(C)(C)C)C(C)(C)C)C(=O)NS(=O)(=O)c1cccc(C)c1 (some centres unmarked) [Compound 36] | < 50 nM | < 500 nM
9 | C=CC1C[C@]1(NC(=O)[C@@H]1C[C@@H](Oc2cc(-c3ccccc3)nc3cc(OC)ccc23)CN1C(=O)[C@@H](NC(=O)OC(C)(C)C)C(C)(C)C)C(=O)NS(=O)(=O)c1cccc([N+](=O)[O-])c1 (some centres unmarked) [Compound 53] | < 50 nM | < 50000 nM
10 | C=CCC[C@](C)(NC(=O)[C@@H]1C[C@@H](Oc2cc(-c3ccccc3)nc3cc(OC)ccc23)CN1C(=O)C(NC(=O)OC(C)(C)C)C(C)(C)C)C(=O)NS(=O)(=O)c1cccc(Cl)c1 (some centres unmarked) [Compound 43] | < 50 nM | < 500 nM
11 | COc1ccc2c(OC3C[C@@H](C(=O)NC4(C(=O)NS(=O)(=O)C5CC5)CC45CC5)N(C(=O)[C@@H](NC(=O)OC(C)(C)C)C(C)(C)C)C3)cc(-c3ccccc3)nc2c1 (some centres unmarked) [Compound 140, {1-[2-(1-Cyclopropanesulfonylaminocarbonyl-spiro[2.2]pentane-1-ylcarbamoyl)-4-(7-methoxy-2-phenyl-quinolin-4-yloxy)-pyrrolidine-1-carbonyl]-2,2-dimethyl-propyl}-carbamic acid tert-butyl ester] | < 50 nM | < 500 nM
12 | C=CC1C[C@]1(NC(=O)[C@@H]1C[C@@H](Oc2cc(-c3ccccc3)nc3cc(OC)ccc23)CN1C(=O)[C@@H](NC(=O)OC(C)(C)C)C(C)(C)C)C(=O)NS(=O)(=O)CCCC (some centres unmarked) [Compound 23] | < 50 nM | < 500 nM
13 | COc1ccc2c(O[C@@H]3CC(C(=O)NC4(C(=O)NS(=O)(=O)C5CC5)CC4)N(C(=O)[C@@H](NC(=O)OC(C)(C)C)C(C)C)C3)cc(-c3ccccc3)nc2c1 (some centres unmarked) [Compound 21] | < 50 nM | < 5000 nM
